Laboratory results from patent publication US6436920B1, “Wrinkling modifiers” (Kao Corporation, priority 1996, dated 2002).

Test system: Wrinkles formed on hairless mice by exposure to UVB
Assay: Effect of the guanidine derivatives on wrinkles formed on hairless mice by exposure to UVB
Format: in vivo, Hairless mice (HR/ICR)
Details: for Area percent by image analysis (%): proportion of shadows of wrinkles on back skin replicas (14 mm, illuminated at 30 degrees), 4% in aqueous ethanol, 100 μl 5 times a week over 6 weeks, control 10.6; for Wrinkle index: visual score 1 (wrinkles completely removed or smoothed) to 4 (observed to a great extent), 4% in aqueous ethanol (50/50 vol. %), 100 μl applied 5 times a week over 6 weeks, groups of 8 mice, control 3.73
Method: Effect of the Guanidine Derivatives (1) to (16) on Wrinkles Formed on Hairless Mice by Exposure to UVB
(1) Hairless mice (HR/ICR, aged 6 weeks at the beginning of the experiment) were,exposed to UVB 3 times a week by using 6 Toshiba healthy lamps, 20SE. The amount of energy was measured by means of a UV-Radiometer, UVR-305/365D manufactured by TOKYO OPTICAL K.K. The dose upon one exposure was determined to be 1 MED or less, i.e., 65 mJ in an amount of energy of 0.28 mW/cm^2. The exposure was effected for 20 weeks. After confirming that the hairless mice had got wrinkles at their backs, they were divided into groups each consisting of 8 mice. Aqueous ethanol (water/ethanol=50/50 vol. %) solutions separately containing Compounds (1) to (16) at a concentration of 4% were applied 5 times a week to their corresponding groups of mice over 6 weeks in a dose of 100 μl. As a control, aqueous ethanol (water/ethanol=50/50 vol. %) was applied in a dose of 100 μl like the samples. After completion of the application, the degree of wrinkles was visually observed to evaluate the samples in accordance with the following standard (wrinkle index).
1: Wrinkles were completely removed or smoothed;
2: Wrinkles were scarcely observed;
3: Wrinkles were somewhat observed;
(2) In order to further analyze the particulars of wrinkles, skin replicas of the size of 14 mm in diameter were gathered from a portion of the back in each of the mice using a Hydrophilic Exaflex hydrophilic vinylsilicone impression material. Each of these replicas was held horizontally and illuminated at an angle of 30 degrees from the horizontal direction, thereby finding a proportion of shadows of the wrinkles as an area percent by means of an image analyzer.

| Structure (SMILES) | Area percent by image analysis (%) | Wrinkle index |
| --- | --- | --- |
| N=C(N)N1CCC(O)C1 (centres unmarked) [Compound (12)] | 3.62 | 2.50 |
| N=C(N)N1CCCC1C(=O)O (centres unmarked) [Compound (2)] | 2.48 | 2.125 |
| N=C(N)N1CC(O)CC1C(=O)O (centres unmarked) [Compound (1)] | 3.21 | 2.0 |
| N=C(N)N1CCCC1CO (centres unmarked) [Compound (4)] | 5.37 | 2.50 |
| N=C(N)N1CCC(C(=O)O)CC1 [Compound (6)] | 3.51 | 2.75 |
| N=C(N)N1CCN(C(=N)N)CC1 [Compound (7)] | 4.28 | 2.75 |
| N=C(N)N1CCCC1 [Compound (14)] | 3.62 | 2.125 |
| N=C(N)N1CCCC1CO (centres unmarked) [Compound (13)] | 4.30 | 2.375 |
| N=C(N)N1CCOCC1 [Compound (5)] | 4.76 | 2.75 |
| N=C(N)N1CCOCC1 [Compound (10)] | 3.41 | 2.50 |
| N=C(N)N1CCC(CC(=O)O)CC1 [Compound (16)] | 4.25 | 2.25 |
| N=C(N)N1CCN(C(=N)N)CC1 [Compound (11)] | 4.02 | 2.75 |
| N=C(N)N1CCC(O)C1 (centres unmarked) [Compound (8)] | 3.26 | 2.25 |
| N=C(N)N1CCCC1CO (centres unmarked) [Compound (9)] | 4.00 | 2.375 |
| N=C(N)N1CCCCC1 [Compound (15)] | 4.48 | 2.50 |
| N=C(N)N1CCC(O)C1 (centres unmarked) [Compound (3)] | 4.32 | 2.50 |
